Earlier results on 19 compounds are cited in US10898463B2, “High-strength oral cannabinoid dosage forms” (ICDPHARMA LTD, priority 2016, dated 2021).

For this data set the following is noted: octanol/water.

As for `CC1=CCC2CC1C2(C)C` (stereo not shown) [Alfa-pinene], the LogP is given as 4.37. On to `C=C1CC/C=C(\C)CC[C@@H]2[C@@H]1CC2(C)C` [Beta-caryophyllene], for which the LogP is given as 4.72. Regarding `CC(C)=CCC[C@](C)(O)C1CC=C(C)CC1` (stereo partly shown) [Bisabolol], the LogP is on record as 5.07. As to `C=C1C2CCC(C2)C1(C)C` (stereo not shown) [Camphene], the LogP is 4.24. For the compound `CC12CCC(CC1=O)C2(C)C` (stereo not shown) [Camphor], the LogP is on record as 2.55. Take `CC1=CCC2C(C1)C2(C)C` (stereo not shown) [Carene]: the LogP is given as 4.32. `CC12CCC(CC1)C(C)(C)O2` [Cineol]: the LogP is on record as 2.7. Turning to `C=CCc1ccc(O)c(OC)c1` [Eugenol], the LogP was 2.66.

Regarding `C=C(C)[C@H]1CC=C(C)CC1` [Limonene], the LogP was 2.38. `C=CC(C)(O)CCC=C(C)C` (stereo not shown) [Linalool]: the LogP is given as 2.65. For `COC(=O)c1ccccc1O` [Methyl salicylate], the LogP is 2.3. Take `C=CC(=C)CCC=C(C)C` [Myrcene]: the LogP was 4.17. Turning to `C=CC(C)(O)CCC=C(C)CCC=C(C)C` (stereo not shown) [Nerolidol], the LogP is given as 4.68. As for `C/C(=C\CO)CCC[C@H](C)CCC[C@H](C)CCCC(C)C` [Phytol], the LogP is 7.04. Turning to `CC(C)=C1CC[C@@H](C)CC1=O` [Pulegone], the LogP is on record as 3.08. Take `CC1=CCC(O)(C(C)C)CC1` (stereo not shown) [Terpinen-4-ol]: the LogP is given as 3.26.

On to `Cc1ccc(C(C)C)c(O)c1` [Thymol], for which the LogP is on record as 3.28. On to Citronella, for which the LogP is given as 3.53. As for Terpinene, the LogP was 4.5.
